{"source": "paper PMC12668289", "about": "(RSC Chemical Biology, 2025)", "key": {"Fluc [1]": {"molecular_target": "T1, Fluc (Photinus pyralis, UniProt P08659)", "T1 sequence (P08659 whole entry)": "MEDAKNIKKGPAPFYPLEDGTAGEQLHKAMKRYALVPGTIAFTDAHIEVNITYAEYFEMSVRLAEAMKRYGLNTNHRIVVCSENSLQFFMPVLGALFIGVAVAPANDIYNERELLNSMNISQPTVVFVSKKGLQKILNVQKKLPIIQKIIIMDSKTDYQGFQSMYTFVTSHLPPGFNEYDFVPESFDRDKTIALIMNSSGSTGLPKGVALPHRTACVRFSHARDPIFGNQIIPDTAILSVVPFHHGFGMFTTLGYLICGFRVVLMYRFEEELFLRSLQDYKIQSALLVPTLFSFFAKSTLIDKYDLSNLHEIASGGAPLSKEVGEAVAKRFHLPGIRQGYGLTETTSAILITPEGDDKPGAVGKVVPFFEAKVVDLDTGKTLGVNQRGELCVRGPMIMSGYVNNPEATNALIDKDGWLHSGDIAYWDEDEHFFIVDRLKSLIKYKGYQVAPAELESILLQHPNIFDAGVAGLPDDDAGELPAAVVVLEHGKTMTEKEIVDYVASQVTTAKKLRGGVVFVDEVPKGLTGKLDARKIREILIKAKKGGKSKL", "assay": "Steady-state kinetics of luciferase reactions (luminometer)", "format": "biochemical", "conditions": "for appKm: pH 8.0, 25 °C; for Substrate inhibition: concentration range tested 0-300", "protocol": "(§1) 1.5 Bioluminescence characterizations\n(§2) Reactions of luciferases, including Photinus pyralis luciferase (Fluc), Phrixothrix hirtus luciferase (SLR), Pyrearinus termitilluminans […]\n(§3) mM D-LH 2 analogues, 3 mM ATP, 6 mM MgCl2, and 10 µM luciferase in 0.2 ml of 100 mM HEPES-NaOH pH 8.0. The bioluminescence (BL) emission characteristics were recorded using a microplate reader in a BL mode (Thermo Scientific, Varioskan, LUX multimode). […]\nBL of the\n(§4) The reactions were initiated by mixing 25 µl of premixed solution of luciferases/D-LH 2 analogues with 125 µl of 3 mM ATP and 6 mM MgCl2 in 100 mM HEPES-NaOH (pH 8.0). The light intensity (relative light unit, RLU) during 0-300 sec was then collected to represent the overall luciferase activity which was further used for calculating kinetic parameters from the Michaelis-Menten equation. […]"}, "Pmluc-WT": {"test_system": "Pmluc-WT", "assay": "Steady-state kinetics of luciferase reactions (luminometer)", "format": "biochemical, Pyrocoelia miyako", "conditions": "for Substrate inhibition: concentration range tested 0-300; for appKm: pH 8.0, 25 °C; for Relative kcat: relative to 2a compound", "protocol": "as §1, §2, §3\nBL of the\nas §4"}, "Pmluc-N230S": {"test_system": "Pmluc-N230S", "assay": "Bioluminescence quantum yield measurement", "format": "biochemical, Pyrocoelia miyako", "protocol": "as §1, §2\nmM D-LH 2 analogues, 3 mM ATP, 6 mM MgCl2, and 10 µM luciferase in 0.2 ml of 100 mM HEPES-NaOH pH 8.0. […]\nA reference light source was used for calibrating a sphere spectrometer equipped with a cooled CCD detector.\nThe absolute responsivity of each luciferase-luciferin reaction was calculated based on a linear standardization between total photon flux measured using the sphere spectrometer equipped with a cooled CCD detector and relative count values measured by a luminometer. Total photons emitted from the bioluminescence reaction of each luciferase-luciferin pair were measured using a calibrated luminometer. A reaction containing 0.5-5 nM of each luciferin, 3 mM ATP, 3 mM MgCl2 in 100 mM Tris-HCl (total volume of 200 µl) was placed into the luminometer and background signals were recorded. The reaction was then initiated by adding 20 µl of 0.5 […]\n(§5) mM purified luciferases into the reaction tube and the bioluminescence signals were monitored until it decayed to the background level."}, "Fluc [2]": {"molecular_target": "T1, Fluc", "assay": "biochemical", "format": "binding", "conditions": "ITC; for G (free energy of binding) / H (enthalpy of binding): 25 °C; for Kd: Table S9"}, "Fluc-ApCPP complex": {"molecular_target": "Fluc-ApCPP complex (Photinus pyralis, UniProt P08659)", "sequence (P08659 whole entry, one chain of several)": "as the sequence (P08659 whole entry) above", "assay": "biochemical", "format": "binding", "conditions": "ITC; for N site / G (free energy of binding) / H (enthalpy of binding): Fluc-ApCCP; for Kd / G (free energy of binding) / H (enthalpy of binding): 25 °C; for Kd: preformed Fluc-ApCPP complex, read-out: Dissociation constant (Kd) Fluc-ApCPP: Luciferin"}, "[3]": {"test_system": "HepG2 cell line stably expressing a Fluc reporter", "assay": "BL spectra in live HepG2 cells stably expressing Fluc", "format": "cell-based, human", "conditions": "live HepG2, DMEM with 25 mM HEPES-NaOH pH 7.0, 37 °C, 100 µM", "protocol": "as §5\nThe QY value was calculated from the measured total numbers of photon emission from the reaction of each D-LH 2 analogue with […]\n1.6 Mammalian cell line culture and bioluminescence assays\nHuman embryotic kidney (HEK293T) cells, human hepatocyte carcinoma cancer (HepG2) cells, human cervical carcinoma (HeLa) cells, and Abelson leukemia virus-transformed cell line derived from BALB/c mice (RAW264.7) cells (American Type Culture Collection, USA) were grown in Dulbecco’s Modified Eagle Medium (DMEM) in low glucose supplemented with 10% (v/v) heat-inactivated fetal bovine serum (FBS) plus 1% (w/v) penicillin-streptomycin. Four types of cells were maintained at 37 °C with 5% CO2. For transient transfection, […]\nsupplemented with 10% (v/v) heat-inactivated FBS. Before transfection, the cultured medium was removed and added a fresh minimal essential medium with reduced amount of serum (opti-MEMTM) to each well. Cells were transfected by adding 0.07 pmol of pGL4.13 [luc2/SV40] as a target vector and 0.007 pmol of pRL-TK as a control vector using lipofectamineTM3000 (Thermo Fisher Scientific) in opti-MEMTM and lipofection. Cells were incubated for 5 h and then the supernatant medium was replaced by a fresh working DMEM medium.\nCells were harvested by washing with 500 μl PBS buffer (pH 7.4). The cells were detached […]\nfreezing-thawing process. […]\nkept at -80 °C until used.\nThe 150 µl assay reaction was carried out in 150 µl 100 mM HEPES-NaOH (pH 8.0). The 25 µl […]\n100 mM HEPES-NaOH (pH 8.0). Then, the RLU signals of each D-LH 2 and analogues were compared. […]\nproteins) and a substrate cocktail reagent (3 mM ATP and 6 mM MgCl2 in 100 mM HEPES pH 8.0). The detection sensitivity of crude lysate of HEK293T expressing Fluc was determined by measuring RLU of the reaction with a luminometer with concentrations under the linearity […]\nAfter the cells reached the highest BL intensity, the dish was recorded with a highly sensitive CCD […]"}, "[4]": {"test_system": "stably Fluc-expressing HepG2 cells", "assay": "Real-time BL monitoring of live cells", "format": "cell-based, human", "conditions": "Fluc HepG2, 100 µM; for Time at which the highest BL signals were achieved: monitored for 3 days"}, "[5]": {"test_system": "SLR-expressing HeLa cells", "assay": "Real-time BL monitoring of live cells", "procedure": "plasmids and Lipofectamine 3000 were then combined and incubated for 30 minutes to allow formation of DNA and lipid complexes.\nThe DNA-lipid complexes were added directly to each well of the empty plate. 1.5 × 10⁵ cells (HepG2 and HeLa cells) were then suspended\nin 150 µL of DMEM supplemented with 10% FBS were added directly into the transfection mixture in each well. The plate was gently\nagitated to ensure even distribution and incubated at 37°C in a humidified 5% CO₂ incubator. The reporter cells obtained at this stage\nwere ready for further investigation of their bioluminescence with D-LH2 analogues.\n2c), 10% FBS and 25 mM HEPES-NaOH (pH 7.0) was added and the BL signals were monitored with F0 (no filter) and F2 (red filter, >620\nnm long-pass filter) by a luminometer (ATTO, Kronos HT, WSL-1563) and while maintaining the cells with 5% CO2 at 37 °C."}}, "note": "Values joined by “and” are separate entries in the source; they are usually repeats but may differ in a detail not shown here. Equal entries are not always repeated. Where two headings read alike, the source gives them in different places.", "data": [{"smiles": "O=C(O)[C@H]1CSC(c2nc3ccc(O)cc3s2)=N1", "note": "[Compound 2a, D-luciferin, reference compound]", "values": [{"measurement": "appKm", "setting": "Fluc [1]", "result": 3.3, "unit": "µM"}, {"measurement": "Substrate inhibition", "setting": "Pmluc-WT", "result": "> 4", "unit": "µM"}, {"measurement": "appKm", "setting": "Pmluc-WT", "result": 0.1, "unit": "µM"}, {"measurement": "Quantum yield", "setting": "Pmluc-N230S", "result": "0.16 and 0.160 ± 0.018"}, {"measurement": "N site", "setting": "Fluc [2]", "result": 1.00}, {"measurement": "N site", "setting": "Fluc-ApCPP complex", "result": 0.32}, {"measurement": "BL spectrum peak in live cells", "setting": "[3]", "result": 604, "unit": "nm"}, {"measurement": "Time at which the highest BL signals were achieved", "setting": "[4]", "result": 44, "unit": "h"}, {"measurement": "Time BL signals are prolonged before signal decreasing", "setting": "[5]", "result": "up to 10 h"}]}, {"smiles": "Cc1cc2nc(C3=N[C@@H](C(=O)O)CS3)sc2cc1O", "note": "[Compound 2b, 5’-methyl-D-luciferin]", "values": [{"measurement": "Substrate inhibition", "setting": "Fluc [1]", "result": "> 10.0", "unit": "µM"}, {"measurement": "appKm", "setting": "Fluc [1]", "result": 3.1, "unit": "µM"}, {"measurement": "Substrate inhibition", "setting": "Pmluc-WT", "result": "> 2", "unit": "µM"}, {"measurement": "appKm", "setting": "Pmluc-WT", "result": 0.4, "unit": "µM"}, {"measurement": "Relative kcat", "setting": "Pmluc-WT", "result": 110.0}, {"measurement": "Quantum yield", "setting": "Pmluc-N230S", "result": "0.17 and 0.170 ± 0.034"}, {"measurement": "N site", "setting": "Fluc [2]", "result": 0.70}, {"measurement": "G (free energy of binding)", "setting": "Fluc [2]", "result": -28, "unit": "kJ/mol"}, {"measurement": "H (enthalpy of binding)", "setting": "Fluc [2]", "result": -7.66, "unit": "kJ/mol"}, {"measurement": "Kd", "setting": "Fluc [2]", "result": 13.4, "unit": "µM"}, {"measurement": "Kd", "setting": "Fluc-ApCPP complex", "result": "4 ± 0.02", "unit": "µM"}, {"measurement": "N site", "setting": "Fluc-ApCPP complex", "result": 0.33}, {"measurement": "G (free energy of binding)", "setting": "Fluc-ApCPP complex", "result": -31.8, "unit": "kJ/mol"}, {"measurement": "H (enthalpy of binding)", "setting": "Fluc-ApCPP complex", "result": -19.2, "unit": "kJ/mol"}, {"measurement": "BL spectrum peak in live cells", "setting": "[3]", "result": 609, "unit": "nm"}, {"measurement": "Highest signal obtained at faster rate than that of 2a", "setting": "[4]", "result": 1.2, "unit": "fold"}, {"measurement": "Time at which the highest BL signals were achieved", "setting": "[4]", "result": 35, "unit": "h"}, {"measurement": "Time BL signals are prolonged before signal decreasing", "setting": "[5]; SLR-expressing HeLa, 100 µM", "result": "up to 10 h"}]}, {"smiles": "Cc1cc2nc(C3=N[C@@H](C(=O)O)CS3)sc2c(C)c1O", "note": "[Compound 2c, 5’,7’-di-methyl-D-luciferin]", "values": [{"measurement": "Substrate inhibition", "setting": "Fluc [1]", "result": "> 12.5", "unit": "µM"}, {"measurement": "appKm", "setting": "Fluc [1]", "result": 2.5, "unit": "µM"}, {"measurement": "Relative kcat", "setting": "Fluc [1]; relative to 2a compound", "result": 67.8}, {"measurement": "Substrate inhibition", "setting": "Pmluc-WT", "result": "> 8.3", "unit": "µM"}, {"measurement": "appKm", "setting": "Pmluc-WT", "result": 1.8, "unit": "µM"}, {"measurement": "Relative kcat", "setting": "Pmluc-WT", "result": 7.7}, {"measurement": "Quantum yield", "setting": "Pmluc-N230S", "result": "0.15 and 0.150 ± 0.014"}, {"measurement": "N site", "setting": "Fluc [2]", "result": 0.80}, {"measurement": "G (free energy of binding)", "setting": "Fluc [2]", "result": -25.4, "unit": "kJ/mol"}, {"measurement": "H (enthalpy of binding)", "setting": "Fluc [2]", "result": -13.4, "unit": "kJ/mol"}, {"measurement": "Kd", "setting": "Fluc [2]", "result": 35.1, "unit": "µM"}, {"measurement": "Kd", "setting": "Fluc-ApCPP complex", "result": "25.3 ± 1.1", "unit": "µM"}, {"measurement": "N site", "setting": "Fluc-ApCPP complex", "result": 3.34}, {"measurement": "G (free energy of binding)", "setting": "Fluc-ApCPP complex", "result": -25.1, "unit": "kJ/mol"}, {"measurement": "H (enthalpy of binding)", "setting": "Fluc-ApCPP complex", "result": -20.3, "unit": "kJ/mol"}, {"measurement": "BL spectrum peak in live cells", "setting": "[3]", "result": 638, "unit": "nm"}, {"measurement": "Highest signal obtained at faster rate than that of 2a", "setting": "[4]", "result": 7.3, "unit": "fold"}, {"measurement": "Time at which the highest BL signals were achieved", "setting": "[4]", "result": 6, "unit": "h"}, {"measurement": "Time BL signals are prolonged before signal decreasing", "setting": "[5]; SLR-expressing HeLa, 100 µM", "result": "up to 18 h"}]}]}
